From ChEMBL document CHEMBL5154783, “Design, synthesis, and evaluation of novel 3-thiophene derivatives as potent fungistatic and fungicidal reagents based on a conformational restriction strategy” (Eur J Med Chem, 2022)
Converted amounts (≈) assume the structure as drawn.

What was measured:
Assay type in all cases: functional
Pichia kudriavzevii = experiment: Antifungal activity against Candida krusei GIM 2.1 assessed as fungal growth inhibition by CLSI based serial microbroth dilution method
Aspergillus fumigatus = experiment: Antifungal activity against Aspergillus fumigatus CGMCC 3.7795 assessed as fungal growth inhibition by CLSI based serial microbroth dilution method
Candida tropicalis = experiment: Antifungal activity against Candida tropicalis CGMCC 2.3739 assessed as fungal growth inhibition by CLSI based serial microbroth dilution method
Cryptococcus neoformans = experiment: Antifungal activity against Cryptococcus neoformans CGMCC 2.3161 assessed as fungal growth inhibition by CLSI based serial microbroth dilution method
Candida parapsilosis = experiment: Antifungal activity against Candida parapsilosis GIM 2.190 assessed as fungal growth inhibition by CLSI based serial microbroth dilution method; conditions: Lodderomyces parapsilosis
Candida albicans [1] = experiment: Antifungal activity against Candida albicans ATCC SC5314 assessed as fungal growth inhibition by CLSI based serial microbroth dilution method
Nakaseomyces glabratus = experiment: Antifungal activity against Candida glabrata clinical isolate assessed as fungal growth inhibition by CLSI based serial microbroth dilution method
Candida albicans [2] = experiment: Antifungal activity against Candida albicans CPCC400616 assessed as fungal growth inhibition by CLSI based serial microbroth dilution method

Row | Compound | MIC (Pichia kudriavzevii) | MIC (Aspergillus fumigatus) | MIC (Candida tropicalis) | MIC (Cryptococcus neoformans) | MIC (Candida parapsilosis) | MIC (Candida albicans [1]) | MIC (Nakaseomyces glabratus) | MIC (Candida albicans [2])
1 | Fc1cc(F)cc(CC2(Cn3ccnc3)COC(c3ccc(-c4ccsc4)cc3)=N2)c1 (stereo not drawn) | > 64 µg/mL | > 64 µg/mL | > 64 µg/mL | > 64 µg/mL | > 64 µg/mL | > 64 µg/mL | > 64 µg/mL | > 64 µg/mL
2 | Fc1ccc(CC2(Cn3ccnc3)COC(c3ccc(-c4ccsc4)cc3)=N2)c(F)c1 (stereo not drawn) | 2 µg/mL (≈ 4.59 µM) | > 64 µg/mL | > 64 µg/mL | > 64 µg/mL | > 64 µg/mL | > 64 µg/mL | > 64 µg/mL | > 64 µg/mL
3 | Clc1ccc(CC2(Cn3ccnc3)COC(c3ccc(-c4ccsc4)cc3)=N2)c(Cl)c1 (stereo not drawn) | > 64 µg/mL | > 64 µg/mL | > 64 µg/mL | > 64 µg/mL | > 64 µg/mL | > 64 µg/mL | > 64 µg/mL | > 64 µg/mL
4 | FC(F)(F)c1ccccc1CC1(Cn2ccnc2)COC(c2ccc(-c3ccsc3)cc2)=N1 (stereo not drawn) | > 64 µg/mL | 32 µg/mL (≈ 68.4 µM) | 16 µg/mL (≈ 34.2 µM) | > 64 µg/mL | > 64 µg/mL | 0.125 µg/mL (≈ 0.267 µM) | 16 µg/mL (≈ 34.2 µM) | 8 µg/mL (≈ 17.1 µM)
5 | c1ccc(CC2(Cn3ccnc3)COC(c3cc4ccccc4s3)=N2)cc1 (stereo not drawn) | > 64 µg/mL | > 64 µg/mL | > 64 µg/mL | 2 µg/mL (≈ 5.36 µM) | > 64 µg/mL | > 64 µg/mL | > 64 µg/mL | > 64 µg/mL
6 | CC(C)c1ccc(CC2(Cn3ccnc3)COC(c3ccc(-c4ccsc4)cc3)=N2)cc1 (stereo not drawn) | > 64 µg/mL | > 64 µg/mL | > 64 µg/mL | > 64 µg/mL | > 64 µg/mL | > 64 µg/mL | > 64 µg/mL | > 64 µg/mL
7 | FC(F)(F)c1ccc(CC2(Cn3ccnc3)COC(c3ccc(-c4ccsc4)cc3)=N2)cc1 (stereo not drawn) | > 64 µg/mL | > 64 µg/mL | > 64 µg/mL | > 64 µg/mL | > 64 µg/mL | > 64 µg/mL | > 64 µg/mL | > 64 µg/mL
8 | CC(C)(C)c1ccc(CC2(Cn3ccnc3)COC(c3ccc(-c4ccsc4)cc3)=N2)cc1 (stereo not drawn) | > 64 µg/mL | > 64 µg/mL | > 64 µg/mL | > 64 µg/mL | > 64 µg/mL | > 64 µg/mL | > 64 µg/mL | > 64 µg/mL
9 | Clc1cccc(CC2(Cn3ccnc3)COC(c3ccc(-c4ccsc4)cc3)=N2)c1 (stereo not drawn) | > 64 µg/mL | > 64 µg/mL | > 64 µg/mL | > 64 µg/mL | > 64 µg/mL | > 64 µg/mL | > 64 µg/mL | > 64 µg/mL
10 | Brc1ccc(C2=NC(Cc3ccccc3)(Cn3ccnc3)CO2)cc1 (stereo not drawn) | > 64 µg/mL | > 64 µg/mL | > 64 µg/mL | 4 µg/mL (≈ 10.1 µM) | > 64 µg/mL | > 64 µg/mL | > 64 µg/mL | > 64 µg/mL
11 | c1ccc(CC2(Cn3ccnc3)COC(c3ccc(-c4ccoc4)cc3)=N2)cc1 (stereo not drawn) | > 64 µg/mL | > 64 µg/mL | > 64 µg/mL | 4 µg/mL (≈ 10.4 µM) | > 64 µg/mL | 0.5 µg/mL (≈ 1.3 µM) | > 64 µg/mL | > 64 µg/mL
12 | Clc1ccccc1CC1(Cn2ccnc2)COC(c2ccc(-c3ccsc3)cc2)=N1 (stereo not drawn) | > 64 µg/mL | 16 µg/mL (≈ 36.9 µM) | 0.5 µg/mL (≈ 1.15 µM) | > 64 µg/mL | 1 µg/mL (≈ 2.3 µM) | 0.125 µg/mL (≈ 0.288 µM) | 16 µg/mL (≈ 36.9 µM) | 8 µg/mL (≈ 18.4 µM)
13 | c1ccc(COc2ccc(C3=NC(Cc4ccccc4)(Cn4ccnc4)CO3)cc2)cc1 (stereo not drawn) | > 64 µg/mL | > 64 µg/mL | > 64 µg/mL | > 64 µg/mL | > 64 µg/mL | > 64 µg/mL | > 64 µg/mL | > 64 µg/mL
14 | Cc1ccc(CC2(Cn3ccnc3)COC(c3ccc(-c4ccsc4)cc3)=N2)cc1 (stereo not drawn) | > 64 µg/mL | > 64 µg/mL | > 64 µg/mL | > 64 µg/mL | > 64 µg/mL | > 64 µg/mL | > 64 µg/mL | > 64 µg/mL
15 | Fc1ccc(CC2(Cn3ccnc3)COC(c3ccc(-c4ccsc4)cc3)=N2)cc1F (stereo not drawn) | > 64 µg/mL | > 64 µg/mL | > 64 µg/mL | > 64 µg/mL | > 64 µg/mL | > 64 µg/mL | > 64 µg/mL | > 64 µg/mL
16 | c1ccc(CC2(Cn3ccnc3)COC(c3cc(-c4ccccc4)on3)=N2)cc1 (stereo not drawn) | > 64 µg/mL | 2 µg/mL (≈ 5.2 µM) | > 64 µg/mL | 4 µg/mL (≈ 10.4 µM) | > 64 µg/mL | > 64 µg/mL | > 64 µg/mL | > 64 µg/mL
